Laboratory results published in US20050042209A1, “MUC1 extracellular domain and cancer treatment compositions and methods derived therefrom” (priority 2000, published 2005).
Like-named read-outs stand apart in the source and are kept apart here. d = 2'-deoxy (DNA); r = 2'-OH (RNA)

What was measured:
[1] = test system: MUC1 transcripts; details: MCF-7 cells
Experimental: Reverse transcription-polymerase chain reaction (RT-PCR): Total cellular RNA was extracted in Triazol, dissolved in RNAase-free water and incubated for 10 min. at 55° C. MUC1-specific primers (5′-[sequence]-3′ and 3′-[sequence]-5′) were designed to span a region within the genomic DNA that contains two introns and result in amplification of a 489-bp fragment from RNA and a 783-bp fragment from genomic DNA. RNA-specific primers for human β-actin were used as a control. The RNA was reverse transcribed and amplified using SuperScript One-Step RT-PCR with Platinum Taq (GIBCO-BRL Gaithersburg, Md.). Amplified fragments were analyzed by electrophoresis in 2% agarose gels.
To determine whether MUC1 expression is decreased at the mRNA level , RT-PCR was performed on MCF-7 cells treated with CDDO and the derivatives. […] Whereas CDDO induces apoptosis of diverse cell types, we assessed viability of MCF-7 cells under the same experimental conditions.

[2] = test system: β-actin; assay: β-actin expression after CDDO; details: 5 μM
Experimental: (§4) Immunoblot analysis: Cells were lysed in ice-cold lysis buffer (20 mM Tris-HCl, pH 8.0, 150 mM NaCl, 1% Triton-X-100, 1 mM phenylsulfonyl fluoride, 1 mM DTT, 10 μgm/ml aprotinin) for 30 min. Lysates were cleared by centrifugation for 20 min. at 4° C. as described (Yin et al, 2001). Proteins were separated by SDS-PAGE, transferred to nitrocellulose and probed with anti-DF3/MUC1 (Kufe, U.S. Pat. No. 5,506,34) or anti-β-actin (Sigma). The antigen-antibody complexes were visualized by enhanced chemiluminescence (ECL; Amersham Life Sciences).

[3] = test system: MUC1; details: MUC1-positive cells
Experimental: Cell Culture: Human MCF-7 breast carcinoma and HeLa cervical carcinoma cella (obtained form the ATCC, Manassas, Va.) were grown in DMEM (high glucose; Mediatech, Cellgrow) supplemented with 10% heat-inactivated fetal calf serum (FCS) and 2 mM L-glutamate.
as §4
CDDO downregulates MUC1 expression: MUC1-positive cells were treated with CDDO at concentrations of 1, 3 and 5 μM.

[4] = test system: intracellular ROS; details: MCF-7 cells, compared to control
Experimental: Measurement of ROS levels: Cells were incubated with 10 mM DCF-DA Sigma) for 15 min. at 37° C. to assess ROS-mediated oxidation of the fluorescent compound DCF (LeBel et al., 1992). Fluorescence of oxidized DCF was measured at an excitation wavelength of 480 nm and an emission wavelength of 525 nm using a flow cytometer (Beckton Dickerson, Lincoln Park, N.J.).
As a control, cells were incubated with NAC, a scavenger of ROS.

[5] = test system: MUC1 DF3 antigen; assay: DF3 antigen levels by immunoblot after NM-3; format: cell-based, human
Experimental: MCF-7 cells were treated with NM-3 (2-(8-hydroxy-6-methoxy-1-oxo-1 H-2-benzopyran-3-yl)propionic acid) at 100-400 μg/ml for 48 hr. DF3 antigen levels were visualized by immunoblot analysis with DF3 MAb (Kufe, U.S. Pat. No. 5,506,343, herein incorporated by reference).
A decrease in the intracellular levels of DF3 antigen of NM-3 treated cells relative to non-treated cells was observed. […] To determine whether NM-3 impaired the extracellular localization of the MUC1 DF3 antigen, the antigen levels in cell culture medium supernatants and on MCF-7 cells after NM-3 treatment were investigated. The levels of DF3 antigen were reduced in both localizations.

[6] = test system: epidermal growth factor receptor (EGF-R); assay: EGF-R expression after NM-3; format: cell-based, human; details: MCF-7, ZR-75-1 and BT-20 cell lines
Experimental: To determine whether NM-3 inhibits the expression of cellular surface proteins as well, the level of epidermal growth factor receptor (EGF-R) expression after NM-3 treatment was tested on MCF-7, ZR-75-1 and BT-20 cell lines.

[7] = test system: A549 cells; assay: Proliferation of A549 cells; format: cell-based, human; details: transfection of siRNA; FIG. 8
Experimental: (§1) Cell culture: Human non-small cell lung cancer A549 cells were grown in RPMI1640 medium supplemented with 10% fetal bovine serum (FBS), 100 units/ml of penicillin and 100 μg/ml of streptomycin, respectively.
Transfection with siRNA: Cells (3×10^5 cells/well) were plated in 6-well plates in growth medium without antibiotics, and incubated overnight. Cells were then transfected with MUC1 siRNAs, siRNA #1, i.e., one against the target sequence SEQ ID NO: 63, i.e., […] with sense and antisense strands as shown in SEQ ID NO: 64 and SEQ ID NO: 65 respectively; and siRNA #2, i.e., one against the target sequence SEQ ID NO: 42, i.e., […] with sense and antisense strands as shown in SEQ ID NO: 43 and SEQ ID NO: 44 respectively, and one control siRNA directed towards the non-specific gene target […] using Oligofectamine reagent (Invitrogen) according to the manufacturer's instructions. After 24 hr of transfection, the medium was changed to complete medium containing antibiotics.
(§2) Treatment of Cells with cisplatinum (CDDP): At 72 hr post transfection of siRNAs, 10 μM CDDP was added to the cells in fresh culture medium. After 48 hr of CDDP exposure cells were trypsinized and analyzed for MUC1 expression and apoptosis as described below.

[8] = test system: MUC1 RNA; assay: RT-PCR of MUC1 RNA after siRNA transfection; format: cell-based, human; details: FIG. 5
Text: (§3) siRNAs: Five different double stranded anti-MUC1 siRNAs were designed: one against the target sequence SEQ ID NO: 63, i.e., […], with sense and antisense strands as shown in SEQ ID NO: 64 and SEQ ID NO: 65 respectively (hereinafter siRNA #1); one against the target sequence SEQ ID NO: 42, i.e., […], with sense and antisense strands as shown in SEQ ID NO: 43 and SEQ ID NO: 44 respectively (hereinafter siRNA #2); one against the target sequence SEQ ID NO: 21, i.e., […], with sense and antisense strands as shown in SEQ ID NO: 22 and SEQ ID NO: 23 respectively (hereinafter siRNA #3); one against the target sequence SEQ ID NO: 66, i.e., […], with sense and antisense strands as shown by SEQ ID NO: 67 and SEQ ID NO: 68 respectively (hereinafter siRNA #4); and one against target sequence SEQ ID NO: 69, i.e., […], with sense and antisense strands as shown by SEQ ID NO: 70 and SEQ ID NO: 71 respectively (hereinafter siRNA #5). A control siRNA was designed against the scrambled target SEQ ID NO: 72 with sense and antisense strands as shown by SEQ ID NO: 73 and SEQ ID NO: 74 respectively. Each RNA sense oligonucleotide (50 μM) was combined with equal volume of antisense oligonucleotide (50 μM) in an annealing buffer (20 mM KCl, 6 mM HEPES-KOH, pH 7.5, 0.2 mM MgCl2). The solution was incubated for 1 min at 90° C. to denature secondary structure, and placed at 37° C. for 1 hour to anneal the complementary strands. The subsequent double stranded RNAs were used as the anti-MUC1 siRNA.
RT-PCR: Total RNA was extracted and purified from cultured cells using RNAzol B according the manufacturer's instructions. The RNA was quantified by determining absorbance at 260 nm. One μg of total RNA from each sample was reverse transcribed into cDNA using Thermoscript reverse transcriptase (Invitrogen) in a volume of 20 μL. The cDNA product was amplified by PCR using Platinum Taq DNA polymerase (Invitrogen) and specific primers for MUC1 and beta-actin as an internal control. The sequences of primers used were as follows; • MUC1 (forward, 5′-[…]-3′; reverse, 5′-[…]-3′) and beta-actin (forward, 5′-[…]-3′; reverse, 5′-[…]-3′).
The reaction was performed using the following program: 94° C. for 2 min, 29 cycles (25 cycles for beta-actin) at 94° C. for 2 min, 48° C. for 1 min, 72° C. for 30s and then additional extension step of 72° C. for 10 min. The PCR products were separated on a 2% agarose gel, stained with ethidium bromide and photographed under UV light.

[9] = test system: MUC1; assay: Western blot of MUC1 after siRNA transfection; format: cell-based, human; details: siRNA 0.2 micromolar
Text: Cell Culture: Human MCF-7 breast cancer cells were maintained in DMEM supplemented with 10% heat inactivated fetal bovine serum (FBS) and 1% penicillin-streptomycin mixture. Human A549 non-small cell lung cancer cells were maintained in RPMI1640 medium supplemented with 10% FBS and 1% penicillin-streptomycin mixture.
as §3
Transfection: Cells (1-3×10^5 cells/well) were plated in 6-well plates in growth medium without antibiotics, and incubated overnight. After washing cells once with Opti-MEM I (Invitrogen), 800 μL of fresh Opti-MEM I and 200 μL of the Reagent (Invitrogen) were added to the cultured cells. Four hours later, 300 μL of FBS was added to the cultured cells.
Western Blot Analysis: Cell were passed a day before transfection. MUC1 siRNA (0.2 micromolar) was added with oligofectamine to cells in 0% FBS. Four hours later serum was added to a final concentration of 10%. After various time intervals (48 h, 72 h and 96 h), cells were washed and total cell lysates were prepared. Proteins were separated from cell lysates by SDS-PAGE, transferred to nitrocellulose and analyzed by immunoblotting with anti-DF3 antibodies.

[10] = test system: A549 cells; assay: Apoptosis assay (Annexin V-FITC/PI) in A549 cells; format: cell-based, human; details: FIG. 7
Experimental: as §1
Transfection with siRNA: Cells (3×10^5 cells/well) were plated in 6-well plates in growth medium without antibiotics, and incubated overnight. […]
as §2
Apoptosis assay.: A549 cells were initially stained for MUC1 expression using the DF3 monoclonal antibody (Kufe, U.S. Pat. No. 5,506,343, herein incorporated by reference). […] The amount of DF3 staining was then measured using a biotinylated goat anti-mouse secondary antibody (diluted 1:200 in staining buffer) and streptavidin-conjugated phycoerythrin (diluted 1:50 in staining buffer). After fluorescent staining for MUC1 expression, apoptosis was determined by staining cells with Annexin V-FITC and propidium iodide (PI). […] Using a flow cytometer, (EPICS XL-MCL, Coulter Corp), the amount of MUC1 expressing cells were determined using the FL2 detector, annexin V-FITC staining was measured in the FL1 detector and propidium iodide staining was measured in the FL3 detector. […]

Row | Compound | proliferation of A549 cells [7] | MUC1 expression at the RNA level (RT-PCR) ([8]; A549 cells) | MUC1 expression at the RNA level (RT-PCR) ([8]; MCF-7 cells) | MUC1 expression at the protein level (immunoblot) ([9]; A549 cells, FIG. 5) | MUC1 expression at the protein level (immunoblot) ([9]; MCF-7 cells, FIG. 5, FIG. 6) | also measured
1 | CC1(C)CC[C@]2(C(=O)O)CC[C@]3(C)[C@H](C(=O)C=C4[C@@]5(C)C=C(C#N)C(=O)C(C)(C)[C@@H]5CC[C@]43C)[C@@H]2C1 [CDDO] |  |  |  |  |  | MUC1 transcripts (RT-PCR) [1]: decrease; β-actin gene expression [2]: no apparent effect; MUC1 protein (immunoblot) ([3]; 5 μM): decreased levels; MUC1 protein (immunoblot) ([3]; 1 or 3 μM at 24 hr): little if any effect; ROS (oxidation of DCF) [4]: detectable increases
2 | COc1cc(O)c2c(=O)oc(C(C)C(=O)O)cc2c1 (centres unmarked) [NM-3, 2-(8-hydroxy-6-methoxy-1-oxo-1 H-2-benzopyran-3-yl)propionic acid] |  |  |  |  |  | levels of DF3 antigen in cell culture medium supernatants and on MCF-7 cells ([5]; MCF-7 cells after NM-3 treatment): reduced; intracellular levels of DF3 antigen ([5]; MCF-7 cells, 100-400 μg/ml for 48 hr, relative to non-treated cells): decrease; EGF-R expression [6]: no detectable changes
3 | siRNA #1: double stranded anti-MUC1 siRNA, target SEQ ID NO: 63, sense SEQ ID NO: 64, antisense SEQ ID NO: 65 (sense GGGGGUUUUCUGGGCCUCUTT; antisense AGAGGCCCAGAAAACCCCCTT; sugars from the 5' end r19 d2, backbone not given here) | decreased the proliferation | downregulate MUC1 expression | downregulate MUC1 expression | downregulate MUC1 expression | downregulate MUC1 expression | 
4 | siRNA #2: double stranded anti-MUC1 siRNA, target SEQ ID NO: 42, sense SEQ ID NO: 43, antisense SEQ ID NO: 44 (sense GGUACCAUCAAUGUCCACGTT; antisense CGUGGACAUUGAUGGUACCTT; sugars from the 5' end r19 d2, backbone not given here) | decreased the proliferation | downregulate MUC1 expression | downregulate MUC1 expression | downregulate MUC1 expression | downregulate MUC1 expression | percentage of apoptotic cells ([10]; A549 cells transfected with siRNA, relative to controls): increase; percentage of apoptotic cells, combination ([10]; A549 cells, siRNA 72 hr then 10 μM CDDP 48 hr): more than additively enhances
